Source: patent publication US20070128719A1, “ISOLATION AND EXPANSION OF ANIMAL CELLS IN CELL CULTURES” (TissueTech, Inc., priority 2003, published 2007)

Columns and labels:
human limbal explants = experiment: Epithelial outgrowth from human limbal explants cultured on intact AM with kinase inhibitors; format: cell-based; conditions: for epithelial outgrowth: limbal explant on intact AM in SHEM, vs DMSO control
Protocol: Human AM was provided by Bio-Tissue (Miami, Fla.) and stored at −80° C. before use. AM was devitalized by freezing and thawing and washed three times with HBSS before being fastened onto a 30 mm culture insert, Millicel-CM (which generated an insert with 23 mm diameter covered by AM), and placed in a 6 well plate (Meller, D. and Tseng S C G, Invest Ophthalmol Vis Sci., 40:878-86, 1999).
After removal of excessive sclera, iris, corneal endothelium, conjunctiva, and Tenon's capsule, the limbal ring was separated by a 7.5 mm trephine from donor human corneas. Each limbal ring was rinsed 3 times with SHEM media. The limbal ring was then exposed for 10 min to 1.2 units/ml Dispase II in Mg^2+- and Ca^2+-free HBSS at 37° C. under 95% humidity and 5% CO2. Following three rinses with SHEM medium, each limbal ring was subdivided into two halves and each half further subdivided into 6 pieces of 1×1.5×2.5 mm explants. To eliminate variations of age, sex, and race, explants from the corresponding position of the same donor cornea were selected for the control and the experimental group, respectively. An explant was placed on the center of intact AM or plastic with the epithelial side facing up and cultured in SHEM medium. The experimental group was added with the inhibitor of desired concentration, while the control group was added with the same concentration of DMSO as the vehicle which was used to dissolve each inhibitor. The culture was maintained at 37° C. under 95% humidity and 5% CO2, the medium was changed every other day, and their outgrowth was monitored daily for 17 days using an inverted phase microscope (Nikon, Japan). The outgrowth area was digitized every other day by Adobe Photoshop 5.5 and analyzed by NIH ImageJ 1.30v (NIH, Bethesda, Md.).
All experiments were performed at least in triplicate. Summary data were reported as means±S.D., compiled and analyzed by MicroSoft Excel™ (MicroSoft, Redmont, Wash.). The mean and standard deviation were calculated for each group using the appropriate version of Student's unpaired t-test. Test results were reported as two-tailed p values, where p<0.05 was considered statistically significant.

FKHRL1 = experiment: Western blot of FKHRL1 phosphorylation in limbal epithelial cells expanded on intact AM; format: cell-based, human
p44/42 MAPK [1] = experiment: Western blot of p44/42 MAPK phosphorylation in limbal epithelial cells expanded on intact AM; format: cell-based, human
Akt = experiment: Western blot of Akt phosphorylation in limbal epithelial cells expanded on intact AM; format: cell-based, human
p44/42 MAPK [2] = conditions: 10 μM; cited from earlier work
Smad2 = experiment: Nuclear accumulation of Smad2 in rhesus monkey keratocytes; format: cell-based; conditions: 4 ng/ml added in KSFM for 48 hours (19.3±5.1% in KSFM alone)
Description: Three rhesus monkeys (Macaca Mulatta), 4 years old, and rabbit and mouse cornea were obtained from an approved tissue-sharing program after euthanasia. An entire anterior corneoscleral segment was removed from the globe by cutting near the limbus with Wescott's scissors. A central cornea was obtained with an 8.0 mm Barron's trephine and immediately transferred to KSFM medium (cat# 17005-042, GIBCO Invitrogen corporation, Carlsbad, Calif.). After removing Descemet's membrane and the corneal endothelium, the corneal epithelium was removed by dispase digestion for 16 h at 4° C. and the remaining corneal stroma was incubated at 37° C. for 16 h in 2.5 ml of DMEM containing 1 mg/ml collagenase A, 20 mM HEPES, 50 μg/ml gentamicin and 1.25 μg/ml amphotericin in a plastic dish. Afterwards, corneal stromal cells were resuspended in 1 ml of KSFM, centrifuged to remove residual matrices, resuspended in KSFM, and seeded on plastic dishes in KSFM or DMEM containing insulin, transferrin, and selenium supplement (DMEM/ITSG) (cat# 41400-045, GIBCO, Carlsbad, Calif.) or 10% FBS (DMEM/10% FBS).
When the primary culture on plastic reached 80% confluence, cells were rendered into single cells by incubation in BSS containing 0.25% trypsin/1 mM EDTA at 37° C. for 1 to 5 minutes, and the enzymatic reaction was stopped by adding soybean-trypsin inhibitor. […]

[3] = tested on: Smad-mediated TGF-β signaling; experiment: Immunolocalization of Smad 2 and Smad 4 in murine keratocytes; format: cell-based, mouse; conditions: 10 ng/ml, cells on plastic in DMEM/ITS (16% without TGF-β1)
Protocol: Isolation and Culture of Keratocytes on Plastic or AM—Albino mice eyes were enucleated by forceps, washed profusely in PBS, and incubated in DMEM containing 20 mM HEPES, 15 mg/ml dispase II (Roche, Indianapolis, Ind.) and 100 mM sorbitol at 4° C. for 18 h (see Espana et al., Invest Ophthalmol Vis Sci. 44:4275-4281, 2003; Kawakita et al., Invest Ophthalmol Vis Sci. 45:3507-3512, 2004). The entire corneal epithelium loosened by this treatment was subsequently removed by vigorous shaking. Under a dissecting microscope, the corneal stroma was separated from the sclera at the corneoscleral limbus by pressing down the limbus with a 27 G needle while the eye was held with a forcep. Isolated corneal stromas were incubated overnight at 37° C. in DMEM containing 1.25 mg/ml collagenase A (Roche, Indianapolis, Ind.), 50 μg/ml gentamicin and 20 mM HEPES in a non-coated plastic dish until the tissue became “smeared” onto the dish bottom. Digested corneal stromas in collagenase A were centrifuged at 800×g for 5 min. Keratocytes were resuspended in DMEM containing 20 mM HEPES, ITS (5 μg/ml insulin, 5 μg/ml transferrin and 5 ng/ml sodium selenite), 50 μg/ml gentamicin and 1.25 μg/ml amphotericin B with or without 10% FBS. […]

murine keratocytes = experiment: α-SMA expression (myofibroblast differentiation) of murine keratocytes; format: cell-based, mouse; conditions: cells on plastic; 5 days of continuous stimulation with TGF-β1
Protocol: TGF-β1 Challenge and Neutralizing Antibody—To assess whether TGF-β1 affected the cell phenotype, triggered Smad 2 and Smad 4 nuclear translocation, and differentiated keratocytes into myofibroblasts, 10 ng/ml human recombinant TGF-β1 (Sigma, St Louis, Mo.) was added to serum-free DMEM/ITS cells for 3 h or 5 days when cells expanded on AM were passed to 24 well plastic dishes and AM inserts, respectively. In addition, primary keratocytes were seeded and cultured on AM or plastic for 3 days in DMEM/ITS or DMEM/10% FBS for 24 h, of which the latter was treated with or without 10 μg of a monoclonal antibody neutralizing TGF-β1, -β2, and -β3 (R&D Systems, Minneapolis, Minn.) per ml of DMEM medium for 48 h before adenoviral transfection.
To confirm that TGF-β was indeed responsible for Smad signaling in DMEM/10% FBS, a neutralizing antibody to three TGF-β isoforms was added to the plastic cultures. Nuclear translocation of Smad 4 was prevented. […] Thirty-nine percent of cells cultured on plastic differentiated into α-SMA-expressing myofibroblasts, but no cell on AM expressed α-SMA even after 5 days of continuous stimulation with TGF-β1.

[4] = tested on: murine limbal epithelial cells; experiment: Clonal expansion of single cell expanded murine limbal epithelial cells in KSFM; format: cell-based, mouse; conditions: 10 pg/ml and 150 pg/ml; 50 cells/cm^2 in KSFM, 6 days
Protocol: Single cell expanded murine limbal epithelial cells were seeded at 50 cells/cm^2 in KSFM and cultured for 6 days. […] Cells seeded at 20,000 cells/cm^2 in KSFM became enlarged.

[5] = tested on: murine limbal epithelial progenitor cells; experiment: α-SMA expression in clonal cultures of murine limbal epithelial progenitor cells; format: cell-based, mouse; conditions: 5 ng/ml in KSFM; low seeding density (500 cells/cm^2)
Protocol: In clonal cultures of murine limbal epithelial progenitor cells, expression of α-SMA, a marker for myofibroblasts, was not detected when clonally expanded murine limbal epithelial cells were seeded at low density (500 cells/cm^2), but increasingly detected when cells were seeded at the intermediate (5,000 cells/cm^2) and high seeding densities (50,000 cells/cm^2). Cells expressing α-SMA were larger and squamous and could also express p63 in the nucleus. […] Under these conditions, expression of S100A shifted from cytoplasm to the nucleus, signaling of Smad 4 moved from cytoplasm to the nucleus, expression of […] moved from the intercellular junction to the cytoplasm and the perinucleus, the signaling of β-catenin moved from the intercellular junctions to the nucleus), and the signaling of LEF-1 also moved from the cytoplasm to the nucleus.

TGF-β1 promoter = experiment: TGF-β promoter assay in human limbal epithelial cells; format: cell-based
Protocol: Human corneal fibroblasts were transiently transfected with the aforementioned adenoviral promoter constructs. […] 2, 2005 and entitled “Suppression Of TGF-B Activity By Amniotic Membrane Extracts, Compositions Thereof, And Methods For The Prevention And Suppression Of Scarring And Inflammation” in a dose-dependent manner (from 0.04 to 125 μg/ml) in human corneal fibroblasts. […] The suppressive effect of both AME and HA alone was lost after pretreatment with HAse. […] A similar result was obtained for TGF-βRII promoter activity.

[6] = after 17 days of treatment at 50 μM
[7] = after 17 days of treatment at 10 μM

O=c1cc(N2CCOCC2)oc2c(-c3ccccc3)cccc12 [LY294002]
epithelial outgrowth (human limbal explants; 5 μM, up to 17 days): not significantly inhibited | epithelial outgrowth (human limbal explants; 10 μM, up to 17 days): not significantly inhibited | time to re-initiation of outgrowth after switch to fresh medium (human limbal explants; [6]): 2 days | time to reach ~80% confluence after removal of inhibitor (human limbal explants; [6]): 30 days

CCOC(=O)c1ccc2[nH]c3c(OC)c4[nH]c5ccc(C(=O)OCC)cc5c4cc3c2c1 [SR13668]
Thr32 phosphorylation of FKHRL1 (FKHRL1; 50 μM): abolished | p44/42 MAPK phosphorylation (p44/42 MAPK [1]; 50 μM): did not change | reduction of the outgrowth rate (human limbal explants; 10 μM, from day 5 to day 11): 50% | reduction of the outgrowth rate (human limbal explants; 10 μM, from day 11 on): 60% | epithelial outgrowth (human limbal explants; 50 μM): completely inhibited | time to re-initiation of outgrowth after switch to fresh medium (human limbal explants; [6]): 2 days | time to reach ~80% confluence after removal of inhibitor (human limbal explants; [6]): 30 days | phosphorylation of Akt at Thr308 and Ser473 (Akt; 50 μM): abolished

N#CC(=C(/N)Sc1ccccc1N)/C(C#N)=C(\N)Sc1ccccc1N [U0126]
phosphorylation of FKHRL1 at Thr32 (FKHRL1; 10 μM): decreased | phosphorylation of p44/42 MAPK (Thr202 and Tyr204) (p44/42 MAPK [1]; 10 μM): abolished | day at which epithelial outgrowth was noted / started (human limbal explants; 10 μM): 8 days | average outgrowth area at day 17 (human limbal explants; 10 μM, day 17): 17.0±3.0 mm^2 | epithelial outgrowth (human limbal explants; 10 μM, up to 17 days): almost halted | time to re-initiation of outgrowth after switch to fresh medium (human limbal explants; [7]): 2 days | time to reach ~80% confluence after removal of inhibitor (human limbal explants; [7]): 25 days | phosphorylation of Akt at Ser473 (Akt; 10 μM): decreased | phosphorylation of Akt at Thr308 (Akt; 10 μM): eliminated | p44/42 MAPK phosphorylation in many cells (p44/42 MAPK [2]): completely inhibited

TGF-β1: human recombinant TGF-β1 (Sigma)
percentage of nuclear accumulation of Smad2 (Smad2): 34.7±4.9% | cells with nuclear localization of Smad 4 ([3]; 3 h): 67% | cells with nuclear localization of Smad 4 ([3]; 5 days): 85% | cells differentiated into α-SMA-expressing myofibroblasts (murine keratocytes): Thirty-nine | clonal expansion [4]: dose-dependently suppressed | α-SMA expression [5]: upregulated

hyaluronic acid [HA]
suppressive effect on TGF-β1 promoter activity after pretreatment with HAse (TGF-β1 promoter): lost
